Assay results published in patent US8703744B2, “Cholesterol level lowering liposomes” (priority 2009, dated 2014).

System: Huh7.5 cells
Test: Uptake of rh-PE-labeled 22:6 ER liposomes into Huh7.5 cells in the presence of drugs that up- and down-regulate LDLr expression
Assay type: cell-based, human
Details: 10 μM, 24 h pre-treatment, then 50 μM rhodamine-labeled 22:6 ER liposomes for 24 h
Protocol: Liposomes were prepared as described in US patent publication no. 20090252785 and included 1% (total moles) of rh-PE for monitoring their uptake in cells. JC-1-infected (MOI=0.5) or uninfected Huh7.5 cells were seeded in 6 well plates at a density of 3×10^5 cell/well in 2 ml of complete DMEM/10% FCS medium. Cells were either pre-treated or not with 1 μM and 10 μM squalestatin (SQ, Sigma) or 25-hydroxycholesterol (25-HC, Sigma) for 24 h in serum-free complete DMEM. Following the 24 h pre-incubation, rh-labeled liposomes were added to a final lipid concentration of 50 μM, and left to incubate for a further 24 h. Following incubation times, cells were washed twice in 1×PBS, detached, counted, and resuspended in 200 μl 1×PBS/1% Triton® X-100 before being transferred to a 96 well plate to read in a spectrofluorometer at λex=550 nm, Xem=590 nm.
22:6 ER liposomes (final lipid concentration of 50 μM), labeled with 1% rh-PE in the lipid bilayer, were then added to cells and left to incubate a further 24 h. Cells were then harvested, counted, and rh-PE fluorescence was measured at λex=550 nm, Xem=590 nm. All data represent the mean and SD of triplicates from three independent experiments. Data are presented in relation to the untreated control (100%), and significant differences from this value are denoted with * (P<0.05) or ** (P<0.001).

SMILES	liposome uptake, in relation to the untreated control (100%)	decrease in liposome uptake
C=C(CC[C@]12O[C@H](C(=O)O)[C@@](O)(C(=O)O)[C@](C(=O)O)(O1)[C@H](OC(=O)/C=C/[C@@H](C)C[C@@H](C)CC)[C@H]2O)[C@@H](OC(C)=O)[C@H](C)Cc1ccccc1 [SQ, squalestatin]	117%	–
C[C@H](CCCC(C)(C)O)[C@H]1CC[C@H]2[C@@H]3CC=C4C[C@@H](O)CC[C@]4(C)[C@H]3CC[C@]12C [25-HC, 25-hydroxycholesterol]	–	69%
